# Tests used:
# ANC2 (ANC2int) = biological target: T1, ANC2 (ANC2int) (synthetic construct, UniProt Z9RCC4OUL6); assay: NADH coupled pyrophosphate release assay; format: biochemical; details: 1 mM substrate, 0.5 mM ATP, 10 mM MgCl2, pH 7.4, 30 °C
# T1 construct: resurrected ancestral A-domain, N-terminal His6-SUMO, C-terminal STREP tag, co-expressed with Tcp13 in E. coli BL21(DE3); with MbtH-like protein Tcp13 (Actinoplanes teichomyceticus)
# ANC1 = biological target: T2, ANC1 (synthetic construct, UniProt Z9HSK4K2R8); assay: NADH coupled pyrophosphate release assay; format: biochemical; details: 1 mM substrate, 0.5 mM ATP, 10 mM MgCl2, pH 7.4, 30 °C
# T2 construct: resurrected ancestral A-domain, N-terminal His6-SUMO, C-terminal STREP tag, co-expressed with Tcp13 in E. coli BL21(DE3); with MbtH-like protein Tcp13 (Actinoplanes teichomyceticus)
Structure (SMILES),NADH coupled pyrophosphate release assay (ANC2 (ANC2int)),NADH coupled pyrophosphate release assay (ANC1)
CC(C)C[C@H](N)C(=O)O [L-Leu],ANC2 and ANC3 were both selective for Leu,
N[C@@H](C(=O)O)c1ccc(O)cc1 [D-Hpg],,with a fourfold preference for the L-form
CC(C)C[C@@H](N)C(=O)O [D-Leu],ANC2 and ANC3 were both selective for Leu,
